From US10034828B2, “Hair treatment systems and methods using peptides and other compositions” (priority 2013, dated 2018) come the findings set out here.

Data set [1] is described as follows: Nitric oxide absorption by carriers (weight gain on bubbling NO gas). The class given is physicochemical. Particulars: NO gas bubbled 40 hr, 25 ° C. As to the method: This example illustrates one technique for preparing a composition in accordance with one embodiment of the invention. An accurate amount of a carrier (HNC 167-62) (see below) was introduced into a system. The carrier weight used in these experiments was approximately 250 g and the vessel size was 500 ml. The vessel was equipped with a mechanical stirrer, gas inlet, and gas outlet and was previously purged with argon for about an hour. The temperature of the carrier was kept at about 25-30° C. NO gas regulated at 5 psi (1 psi is about 6,900 Pa) and was then introduced at a controlled rate of about 1 bubble/s with continuous stirring. […] After 6 hours, the weight of the carrier had increased by 0.15%, by 12 hours by 0.25%, and by 24 hours by 0.56%. These increases in weight were believed to be significant considering the relative small molecular weight of NO versus the carrier. […] The carrier also can solidify upon cooling if the carrier is initially a solid at lower temperature.
Each carrier was taken in a 500 mL three necked flask equipped with a mechanical stirrer, gas inlet and a gas outlet. The system was purged with argon for one hour at room temperature (25° C.). Then nitric oxide gas was bubbled into the system. Then, nitric oxide gas was bubbled through carrier for stipulated amount of time. The changes in weight and color were noted. […]

Data set [2] is described as follows: Carrying of TRH peptide by carrier formulations. The class given is physicochemical. Particulars: TRH concentration of 5.0 mg/cc. The text has this:
Any of the above compositions are effective as carriers for peptides and nitric oxide.

The subject of data set [3] is capillary circulation of the skin. Nature of the data set: Laser Doppler circulation study in five human subjects (Example 8). The class given is in vivo. Particulars: positive control formulation containing 0.1% methyl nicotinate. The text has this: This example illustrates delivery of nitric oxide formulations to five human subjects, using procedures and formulations similar to those discussed in Example 5. Each person served as their own control for the testing. A Moor Instruments Laser Doppler was used to determine circulation. […] The formulations used produce positive, almost immediate results when applied to the skin which, in these studies, was manifested by vasodilatation of the cutaneous vascular system.
For each subject, the following creams were applied: a negative control formulation (containing no NO), 0.010 gram of a 10,000 ppm NO formulation, 0.020 gram of a 10,000 ppm NO formulation, and a positive control formulation containing 0.1% methyl nicotinate. The formulations were prepared using procedures similar to those discussed in Example 1.

Data set [4] concerns micro-capillary blood flow to skin. Briefly: Laser Doppler capillary blood flow in humans, 10,000 ppm NO in closed Hilltop chamber (Example 5). The class given is in vivo, human. Particulars: applied to the skin at 1/10% in alcohol. An excerpt:
The formulation used in these studies contained nitric oxide dispersed in a lipid matrix. […] Nitric oxide is a very rapid acting molecule, and these studies used a system that employed laser Doppler with a covered chamber. The formulation was placed into the chamber and then attached to the skin by an adhesive layer on the covering. This provided a stable measuring device as determined by multiple normal evaluations of the capillary blood flow without treatment of nitric oxide.
A known positive control, methyl nicotinate, was applied to the skin at a concentration of 1/10% in alcohol. […] The vascular dynamics are such that when the blood vessels dilate physical parameters follow Bernoulli's law. […] The laser Doppler device accurately measured these parameters.
In these studies, the participants were healthy females aged 30 to 55 years. They were in good health as determined by the medical history and were not taking any prescription medications. All study participants read and signed the informed consent statement prior to any study procedures being performed. […]
A Moor Instruments DRT4 Laser Doppler Blood Flow Monitor (Devon, England) was used in these studies. The laser Doppler technique measured blood flow in the microcapillaries of the skin that are close to the skin surface and the blood flow in underlying arterioles and venules that help to regulate skin temperature. […]

On to `OCCCO` [1,3-Propanediol, 1,3-propanediol], for which, in data set [1], the “% Wt. gain” value is 0.09% and the “Wt. Gain g” value was 0.16 g.
For the molecule `NC(=O)[C@@H]1CCCN1C(=O)[C@H](Cc1cnc[nH]1)NC(=O)[C@@H]1CCC(=O)N1` [TRH, thyrotropin-releasing hormone], the “carrying of the peptide by formulations HNC 156-43, HNC 156-50, HNC 156-47, HNC 159-136” value in data set [2] is “effectively carried”.
For the molecule `COC(=O)c1cccnc1` [methyl nicotinate], the vasodilatation entry in data set [3] is “vasodilatation was observed”. The “laser Doppler response to positive control” value in data set [4] is recorded as “rapid response typical of the vasodilator”.
